pEC50: −log10 of the molar value.
Columns and labels:
RORγ-LBD = molecular target: T1, RORγ-LBD (Homo sapiens, UniProt P51449); assay: RORγ-Ligand Binding Domain (LBD) TR-FRET Assay; assay type: biochemical
T1 construct: HIS-tagged RORγ-LBD protein was expressed in SF9 cells using a baculovirus expression system; made in house; host or cells: SF9 insect cells, baculovirus; lysate used
T1 sequence (P51449 269-508 limits assumed): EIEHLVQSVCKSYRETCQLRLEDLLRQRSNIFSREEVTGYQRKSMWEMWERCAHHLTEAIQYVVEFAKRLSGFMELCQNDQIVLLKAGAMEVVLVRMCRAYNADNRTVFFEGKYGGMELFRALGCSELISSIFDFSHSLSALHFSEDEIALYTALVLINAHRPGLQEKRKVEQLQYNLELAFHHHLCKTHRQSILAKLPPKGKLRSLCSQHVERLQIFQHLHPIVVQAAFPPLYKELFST
Description: HIS-tagged RORγ-LBD protein was expressed in SF9 cells using a baculovirus expression system. The lysate was diluted in assay buffer (50 mM Tris pH 7.0, 50 mM KCl, 1 mM EDTA, 0.1 mM DTT, 0.01% BSA) to obtain RORγ-LBD final concentration of ˜3 nM in a 384-well assay plate (need to titrate for each batch of protein).
A stock of biotinylated-LXXLL peptide from coactivator SRC1 (Biotin-[…]) was prepared in assay buffer and added to each well (200 nM final concentration). […] RORγ antagonist ursolic acid was also included at a final concentration of 2 μM. Compounds were diluted in DMSO and further diluted in assay buffer with a final DMSO concentration at 1%.

Gal4-RORγ-LBD = molecular target: T2, Gal4-RORγ-LBD (Homo sapiens, UniProt P51449); assay: Gal4-RORγ Luciferase Reporter Assay in HEK-293T Cells; assay type: cell-based
T2 construct: expressed in transfected cells
T2 sequence (P51449 269-508 limits assumed): T1 sequence (P51449 269-508 limits assumed)
Description: In the following protocol, HEK-293 cells were transfected with a construct comprising the Gal4 DNA binding domain fused to the ligand binding domain of RORγ (Gal4-RORγ-LBD) in a pcDNA3.1neo plasmid, and also with a reporter construct comprising pGL4.31 Gal4-luciferase (Promega). Control cells were prepared similarly using empty pcDNA3.1neo and pGL4.31 vectors.
Trans-IT reagent (Mirus, 60 μL) at room temperature was added drop wise to OptiMEM (Invitrogen, 1.5 ml). This reagent mixture was mixed by inversion then incubated for 5 to 30 minutes at room temperature. It then was added to a solution of both expression vectors (5 μg each), mixed, and incubated at room temperature for about 20 minutes. HEK-293 cells were harvested from incubation flasks by removing the media, treating with TrypLE Express (Invitrogen), and incubating until the cells detached from the bottom of the flask (approximately 2-5 minutes). […]
The cells were harvested as described above, counted, and centrifuged to obtain the desired number of cells, then re-suspended in complete growth media at 0.75×10^6 cells/mL. […] The luciferase intensity was read on an Envision plate reader (Perkin Elmer). […] The Max Response is the upper plateau in the signal as determined by line-fit using a 4-parameter logistic model in PRISM (GraphPad).

EG7 tumors = assay: Adoptive transfer of Tc17 cells treated ex vivo with RORγ agonist to mice bearing EG7 tumors; assay type: in vivo; conditions: Tc17 cells exposed ex vivo to compound at 10 μM; FIG. 1 Part A
Description: EG7 cells (EL4 cells with OVA expression) were grown in RPMI 1640 medium (Invitrogen)/10% heat-inactivated FBS (Hyclone), penicillin-streptomycin, and 50 mM β-mercaptoethanol (Invitrogen); harvested; washed with phosphate-buffered saline (PBS); and then implanted at 1×10^6 cells/mouse in PBS into the flank of mice subcutaneously. Implanted tumor cells grow into visible tumor in about one week. Mice are provided food and water ab libitum throughout the duration of the experiment.
Three to five days after tumor cell transplantation, Tc17 differentiation culture is set up. […]
When a tumor becomes visible, tumor volume is assessed by caliper measurement of the length and width and tumor volume is calculated (0.5×(length×(width)^2). When the tumor becomes visible in most mice (typically 7-10 days after implantation), mice are randomized by tumor volume (tumor volume is <500 mm^3) and divided into three groups. Differentiated Tc17 cells (with or without RORγ agonist) are counted, washed with phosphate buffered saline (PBS), and then the cells are injected into tumor-bearing mice at 5×10^6 cells/mouse intraperitoneally or intravenously using a PBS carrier to deliver the cells. […]
After T cell transfer, tumor volume was assessed every 2 to 3 days. In studies where survival is assessed, mice that are alive and have tumor volume smaller than 3000 mm^3 are considered survivors.

pEC50 (RORγ-LBD; in presence of 2 μM RORγ antagonist ursolic acid): > 6.30
TR-FRET Assay Average Max Response (RORγ-LBD; upper plateau, signal in absence of ursolic acid or test compound set as 100): **** (a value greater than 200)
pEC50 (Gal4-RORγ-LBD; HEK-293 cells, 2 μM ursolic acid): 5.30 to 6.30
Structure (SMILES): C[C@H]1CN(S(=O)(=O)c2cccc(C(F)(F)F)c2)c2cc(COc3c(F)cccc3Cl)ccc2O1 [Compound 1]
Gal4-RORγ Assay Average Max Response (Gal4-RORγ-LBD; upper plateau, luciferase signal in absence of ursolic acid or test compound defined at 100): ** (a value in the range of greater than 90 to 150)
change in tumor volume over time, p vs. DMSO treated Tc17 cells (EG7 tumors): < 0.004

— patent US10532088B2, “Adoptive cellular therapy using an agonist of retinoic acid receptor-related orphan receptor gamma and related therapeutic methods” (Lycera Corporation, priority 2014, dated 2020)
